Measured values as given in patent US20250009698A1, “NERVONIC ACID-BASED COMPOSITIONS AND METHODS” (REGENTS OF THE UNIVERSITY OF MINNESOTA, priority 2023, published 2025).
Entries after “also recorded” stand apart in the source; their conditions may differ.

Key:
ALD double knockout mice = experiment: In vivo mouse study, four-week NA or EA diet, fatty acids in plasma and tissues; conditions: for C26:0 in tissues, 3% NA group versus 3% EA group: comparison of 3% NA and 3% EA treatment groups
Protocol: An in vivo ALD double knockout mice model was used to evaluate the effect of NA or EA on various fatty acid concentrations in the tissue of the mice see Example). Mice were fed a diet containing 0.6% NA, 3% NA, or 3% EA for four weeks (FIG. 20). Blood samples taken every week and tissues harvested after four weeks of treatment were analyzed for fatty acid concentration.
Double ALD knockout mice were grown to eight weeks. At eight week the mice were split into four treatment groups. Three of the treatment groups received nervonic acid (NA, 0.6% or 3%) or erucic acid (EA, 3%) through their daily diet. Specifically, mice were fed with rodent chow (TEKLAD Rodent Chow available from Inotiv in West Lafayette, IN) mixed with the desired amount of NA or EA. Food was available continuously and new food was added every other day. Daily food intake was weighed and mouse weighed every week. Blood samples were taken weekly for four weeks. Following four weeks, the mice were sacrificed, and their tissues analyzed for fatty acid content. GCMS was used for lipid fatty acid content analysis and LC-MS/MS was used to analyze Lyso-PC.

[1] = test system: ALD cells (cALD and AMN cells); experiment: Basal energy production measured as ATP content in ALD cells; format: cell-based, human
Protocol: (§1) In vitro and in vivo experiments were done to evaluate the ability of nervonic acid to modulate ALD associated biochemistry in various ALD phenotypes including childhood cerebral ALD (cALD) and adrenomyeloneuropathy (AMN). Nervonic acid (NA) was compared to the erucic acid (EA), the active ingredient in Lorenzo's oil. […] Additionally, the potential of NA and EA to alter the basal energy production measured as ATP content in ALD cells was assessed (Terluk et al., Neurotherapeutics 2022 April; 19(3):1007-1017. doi: 10.1007/s13311-022-01226-7). Following a five-day treatment with NA, cellular ATP content was increased in cALD cells (FIG. 6).

[2] = preliminary animal studies; cited from earlier work
AMN cells (GM17819) = experiment: Seahorse cell mitochondrial stress test (MST), oxygen consumption rate; format: cell-based, human; conditions: 5, 20, 50 μM NA, 24 hours
Protocol: Mitochondrial function was assessed using a cell mitochondrial stress test (MST; see Seahorse study in the Example). As depicted in FIG. 8, in this experiment, inhibitors of various electron transport chain components (oligomycin; FCCP/carbonyl cyanide 4-(trifluoromethoxy)phenylhydrazone; rotenone and antimycin A) are sequentially incubated with cells and the oxygen consumption rate (OCR) measured following each incubation to evaluate various individual parameters of respiration. The OCR of cells that were treated with NA was compared with cells not treated with NA. FIG. 13A-13, FIG. 14A-B, FIG. 15A-B, and FIG. 16A-B are plots showing the results of the respiration test.
Mitochondrial function was assessed on AMN cells (GM17819) using the Cell Mito Stress Test (CMST) in an XFe96 Extracellular Flux Analyzer (Agilent Technologies, Inc., Santa Clara, CA). Cells (1.25×10^4 cells/well) were seeded overnight on Cell-Tak coated XFe96 microplate and then treated with NA (5 μM, 20 μM, or 50 μM) for 24 hours. For the CMST measurements, the culture medium was replaced with XF DMEM medium supplemented with glutamine 4 mM, sodium pyruvate 1 mM, and glucose 24.9 mM, pH 7.4 and 37° C. Oxygen consumption rate (OCR) was detected at baseline and after the following injections: 1) oligomycin (3 μM), 2) carbonyl cyanide 4-(trifluoromethoxy)phenylhydrazone/FCCP (2 μM), and 3) rotenone (1 μM) plus antimycin A (1 μM). This protocol allowed the analysis of the following parameters: basal respiration, ATP production, proton leak, maximal respiration, spare respiratory capacity, non-mito respiration, coupling efficiency percent, and spare respiratory capacity percent. OCR data were normalized by the number of cells determined by using CyQUANT NF Cell Proliferation Assay Kit (Thermo Fisher Scientific, Inc., Waltham, MA) and a fluorescence microplate reader. OCR results were generated by SEAHORSE WAVE PRO (Agilent Technologies, Inc., Santa Clara, CA) and analyzed with the SEAHORSE Analytics software (Agilent Technologies, Inc., Santa Clara, CA).

ELOVL1 = biological target: T1, ELOVL1 (Homo sapiens, UniProt Q9BW60); conditions: earlier studies; cited from earlier work
T1 sequence (Q9BW60 1-279): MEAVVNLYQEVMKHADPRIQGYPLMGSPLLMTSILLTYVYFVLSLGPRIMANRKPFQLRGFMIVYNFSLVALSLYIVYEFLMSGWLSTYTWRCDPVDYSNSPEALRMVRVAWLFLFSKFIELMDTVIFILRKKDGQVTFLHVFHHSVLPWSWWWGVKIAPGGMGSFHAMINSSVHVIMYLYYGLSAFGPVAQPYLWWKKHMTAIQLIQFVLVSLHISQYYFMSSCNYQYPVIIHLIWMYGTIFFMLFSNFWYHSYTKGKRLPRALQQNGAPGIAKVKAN

[3] = test system: ALD gene-knockout mice (KO; ABCD1-); experiment: Pharmacokinetics of NA study, single oral dose; format: in vivo, mouse
Protocol: (§2) Pharmacokinetic studies were conducted to determine the key pharmacokinetic parameters of NA in an ALD mouse model and assess alterations in plasma C26:0 levels following single-dose NA administration. The pharmacokinetic parameters of NA were defined for the first time in rodents (FIG. 35-39). […] The concentrations of NA in the brain (FIG. 37) and in the liver (FIG. 38) were determined.
(§3) Pharmacokinetic studies were conducted using 12-week-old male ALD gene-knockout mice (KO; ABCD1-) following a single oral administration of 10 mg of NA. Blood samples were collected from the submandibular vein prior to dosing and at 0.25, 0.5, 1, 2, 6, 18, 24, 30, 48, 72, and 168 hours post-administration. The concentrations of NA in plasma and tissues were analyzed at the Kennedy Krieger Institute using GC/MS. Pharmacokinetic parameters including systemic clearance (CL/F), volumes of distribution (V/F), elimination half-life (ti/2), and the area under the curve (AUC) were estimated using PHOENIX (Certara USA, Radnor, PA) with non-compartmental analysis (NCA).

[4] = Pharmacokinetics of NA study, single oral dose; format: in vivo, mouse; conditions: male, ALD gene-knockout (ABCD1-), mouse, in vivo; single oral 10 mg; plasma; NCA
Protocol: as §2, §3

[5] = cited from earlier work
[6] = test system: ALD patient-derived fibroblasts; conditions: earlier studies; cited from earlier work
[7] = test system: Human dermal AMN fibroblasts (GM17819); experiment: Imaging study of oxidative stress (CELLROX, MITOSOX); format: cell-based; conditions: five days, compared to vehicle and control
Protocol: A second set of in vitro experiments were conducted to more thoroughly understand the mechanism of action of nervonic acid in the mitochondria of ALD cells. AMN patient derived fibroblasts were treated with various concentrations of NA (5 μM, 20 μM, and 50 μM in ethanol) and evaluated for mitochondrial oxidative stress by evaluating reactive oxygen species (see Example) and mitochondrial respiration (see Example). FIG. 9 and FIG. 11 show images of the NA AMN treated cells stained for reactive oxygen species (green) or mitochondrial superoxide (red) and nuclei (blue; see Imaging Study in Example). FIG. 10 and FIG. 12 show bar graphs quantifying the reactive oxygen species fluorescence of FIG. 9 and the mitochondrial superoxide fluorescence of FIG. 11.
Human dermal fibroblasts (GM17819) were seeded on chamber slides with a density of 12,500 cells per well and incubated at 37° C. At ˜80% confluence, cells were treated with ethanol (vehicle, <0.1%) and NA (5 μM, 20 μM, or 50 μM) for five days. Untreated AMN fibroblasts were considered the control group. […] Cell localization and fluorescence visualization were then completed using a fluorescence microscope (BZ-X810; Keyence, Osaka, Japan). […]

AMN cells = experiment: Long chain fatty acid (LCFA) oxidation stress test with UK5099, BPTES, etomoxir; format: cell-based, human; conditions: 20 μM NA, 24 h, with inhibitors UK, BP, ETO alone or combined
From the text: A long chain fatty acid (LCFA) oxidation stress test (SEAHORSE XF assay; Agilent Technologies, Inc., Santa Clara, CA) was used to assess how NA affects mitochondrial respiration when various metabolic pathways of mitochondria are inhibited. Specific inhibitors to block glucose, fatty acid or glutamine pathways were used alone or in combination to understand the substrate specific effects of NA. In this assay the mitochondrial stress test (MST) is repeated with one or more inhibitors of glycolysis, the TCA cycle, electron transport, and oxidative phosphorylation pathways are present. Etomoxir (Eto) is used to inhibit carnitine palmitoyl transferase 1a (CPT1a), an enzyme important in the mechanism for beta oxidation (degradation) of long chain fatty acids. UK5099 (UK) is used to inhibit transport of glucose and/or pyruvate by targeting the mitochondrial pyruvate carrier (MPC). BPTES (BP) is used to inhibit glutaminase GLS1, an enzyme that converts glutamine into glutamate, a substrate for further oxidation in the TCA cycle. AMN cells were incubated with one or more of the inhibitors with or without 20 μM NA and run through the mitochondrial stress test. The results are shown in FIG. 17, FIG. 18, and FIG. 19.

AMN and cALD cells = experiment: Fatty acid levels in ALD cells treated with NA or EA; format: cell-based, human; conditions: 0, 5, 20, 50 μM
Protocol: as §1

Q: With `CCCCCCCC/C=C\CCCCCCCCCCCC(=O)O` [EA, erucic acid, reference compound] as the compound, how does the “C22:1 amount in brain” value (ALD double knockout mice; 3% EA diet, four weeks) read?
A: did not show an elevation

Q: And the “C22:1 (EA) levels in liver, kidney, heart, and adrenal” value (ALD double knockout mice; compared to control group, 3% EA diet, four weeks)?
A: significant elevation

Q: What about the “C26:0 in tissues, 3% NA group versus 3% EA group” value (ALD double knockout mice) of the same compound?
A: no significant difference; also recorded: comparable

Q: And the “C22:1 (EA) level in plasma” value (ALD double knockout mice; only after 4-week treatment with 3% EA)?
A: significant increase

Q: And the “cellular ATP content (energy production) at 20 μM” value ([1]; 20 μM, compared to vehicle-treated cells, five-day treatment)?
A: did not show a marked increase

Q: And the cardiotoxicity [2]?
A: associated with cardiotoxicity

Q: For `CCCCCCCC/C=C\CCCCCCCCCCCCCC(=O)O` [NA, Nervonic acid], which ATP production (AMN cells (GM17819)) is on record?
A: increase

Q: What about the basal respiration (AMN cells (GM17819)) of the same compound?
A: increase

Q: And the maximal respiration (AMN cells (GM17819))?
A: increase

Q: What about the spare respiratory capacity (AMN cells (GM17819)) of the same compound?
A: increase

Q: What about the “inhibition of ELOVL1” value (ELOVL1) of the same compound?
A: competitively inhibit

Q: What about the CL/F ([3]; single oral 10 mg, plasma, NCA) of the same compound?
A: 8.509 mL/h

Q: And the Ke ([3]; single oral 10 mg, plasma, NCA)?
A: 0.01113 h⁻¹

Q: What about the V/F ([3]; single oral 10 mg, plasma, NCA) of the same compound?
A: 764.7 mL

Q: What about the “plasma C26:0 LPC” value ([3]; single oral dose 10 mg NA) of the same compound?
A: does not significantly affect

Q: What about the “plasma C26:0 levels” value ([3]; single oral dose 10 mg NA) of the same compound?
A: does not significantly affect

Q: And the AUC [4]?
A: 2330 µg·h/mL

Q: What about the Cmax [4] of the same compound?
A: 32.7 µg/mL

Q: What about the Tmax [4] of the same compound?
A: 2 h

Q: And the half-life [4]?
A: 62.3 h

Q: What about the “plasma C26:0 Lyso-phosphatidylcholine (C26:0 LPC)” value (ALD double knockout mice; after 4-week treatment, dose-dependent manner) of the same compound?
A: significantly reduced

Q: And the “C24:1 levels in liver, kidney, heart, and adrenal gland” value (ALD double knockout mice; compared to control group, NA diet, four weeks)?
A: significant elevation

Q: And the “C26:0 in tissues, 3% NA group versus 3% EA group” value (ALD double knockout mice)?
A: no significant difference; also recorded: comparable

Q: And the “plasma C26:0” value (ALD double knockout mice; diet 0.6% or 3% NA)?
A: dose dependent decrease

Q: What about the “NA level in plasma at steady state” value (ALD double knockout mice; following four-week treatment) of the same compound?
A: approximately 70 pig/mL

Q: What about the “C26:1 levels in plasma” value (ALD double knockout mice; intake of NA) of the same compound?
A: significant increase

Q: What about the “C26:0 levels in tissues” value (ALD double knockout mice; liver, kidney, brain, heart, adrenal, four weeks) of the same compound?
A: decrease

Q: What about the “solubility in dimethyl sulfoxide” value ([5]; dimethyl sulfoxide) of the same compound?
A: approximately 20 mg/ml

Q: And the solubility in dimethylformamide ([5]; dimethylformamide)?
A: approximately 20 mg/ml

Q: And the solubility in ethanol ([5]; ethanol)?
A: approximately 10 mg/ml

Q: What about the “accumulation of C26:0” value [6] of the same compound?
A: biochemically reverse

Q: And the “mitochondrial superoxide (MITOSOX fluorescence)” value ([7]; 5 μM or 20 μM)?
A: decrease

Q: What about the “reactive oxygen species (CELLROX fluorescence)” value ([7]; 5 μM, 20 μM, or 50 μM) of the same compound?
A: decrease

Q: What about the acute response (AMN cells) of the same compound?
A: No significant change

Q: What about the basal respiration (AMN cells) of the same compound?
A: No significant change

Q: And the maximal respiration (AMN cells)?
A: No significant change

Q: And the “cellular ATP content” value ([1]; cALD cells, five-day treatment)?
A: increased

Q: What about the “cellular ATP content at other concentrations” value ([1]; concentrations other than 20 μM, cALD and AMN cells) of the same compound?
A: a trend was observed

Q: And the “amount of C26:0 fatty acid” value (AMN and cALD cells)?
A: dose-dependent effect on decreasing
